In PMC4459817, “Vasculotide reduces endothelial permeability and tumor cell extravasation in the absence of binding to or agonistic activation of Tie2” (EMBO Molecular Medicine, 2015):

Columns and labels:
[1] = tested on: LM2-4luc experimental metastasis; settings: SU prior to IV inoculation of LM2-4luc; ref Ebos et al, 2009; cited from earlier work
Excerpt: Here, we tested whether concurrent VT therapy can be used to reverse this pro-metastatic potential of SU in the same model. LM2-4^luc is a metastatically aggressive luciferase-tagged derivative of the MDA-MB-231 cell line that was derived through serial in vivo selection ...

[2] = tested on: Tie2− tumor cells (LM2-4luc); experiment: MTS cell viability assay, tumor cells; format: cell-based, human; settings: 48 h MTS; Supplementary Fig S2 (VT 0.1 to 1000 ng/mL)
Protocol: TCs were cultured in DMEM High Glucose basal media supplemented with 5% FBS and grown humidified incubators at 37 °C, 21%O2 and 5%CO2 unless otherwise specified. LM2-4 luc is a highly metastatically aggressive variant of the human breast carcinoma MDA-MB-231 cell line (derived through serial in vivo selection of lung metastases from orthotopic implantations in immunodeficient mice) that has been transfected with a firefly luciferase vector (Man et al, 2007; Ebos et al, 2009). HT29luc is a human colon carcinoma cell line also transfected with the luciferase gene (Hackl et al, 2013). SN12luc refers to a luciferase-tagged and highly metastatic clone of a human renal cell carcinoma cell line, SN12-PM6-L1luc (Jedeszko et al, 2015). MeWo is a human melanoma cell line (Ebos et al, 2009).
2. Endothelial cells (ECs) […]
5,000 LM2-4luc or HMVEC-LBl cells, in 100uL of their regular growth media, were seeded per well on a 96-well plate. […] Absorbances were read at 490nm and background-corrected with reference 560nm readings or acellular treatment-only […]
4. […] Protein concentrations in TC-CM vs. control media were measured using: a Quantikine ELISA kit (R&D Systems DVE00) for human VEGF; a FlowCytomix Multiplex kit (eBioscience BMS810FF) for human IL-6 and IL-8; and a BCA protein assay kit (Thermo Scientific) for total protein.

[3] = target: T1, mouse Tie2-Fc (Fc-conjugated extracellular domain of Tie2) (mouse, UniProt Q02858 23-746); experiment: SPR
T1 chain: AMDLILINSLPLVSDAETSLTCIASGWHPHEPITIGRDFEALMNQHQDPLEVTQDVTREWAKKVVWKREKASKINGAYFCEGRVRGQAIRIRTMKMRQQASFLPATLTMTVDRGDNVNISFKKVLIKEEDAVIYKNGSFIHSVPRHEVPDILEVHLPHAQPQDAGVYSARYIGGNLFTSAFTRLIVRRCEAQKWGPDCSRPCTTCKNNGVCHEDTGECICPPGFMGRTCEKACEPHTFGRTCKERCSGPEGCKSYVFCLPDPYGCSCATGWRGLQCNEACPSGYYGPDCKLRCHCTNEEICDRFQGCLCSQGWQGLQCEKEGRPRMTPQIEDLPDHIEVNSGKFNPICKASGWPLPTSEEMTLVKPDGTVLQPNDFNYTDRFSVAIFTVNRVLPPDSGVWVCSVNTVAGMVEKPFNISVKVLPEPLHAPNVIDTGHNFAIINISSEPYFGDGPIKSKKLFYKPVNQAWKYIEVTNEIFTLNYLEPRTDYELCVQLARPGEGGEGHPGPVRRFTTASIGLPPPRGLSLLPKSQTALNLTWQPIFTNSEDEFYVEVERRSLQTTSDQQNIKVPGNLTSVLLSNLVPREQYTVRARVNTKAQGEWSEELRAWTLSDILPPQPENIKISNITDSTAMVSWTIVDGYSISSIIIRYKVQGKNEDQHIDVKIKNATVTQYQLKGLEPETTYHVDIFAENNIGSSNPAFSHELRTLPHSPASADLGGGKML

CCN(CC)CCNC(=O)c1c(C)[nH]c(/C=C2\C(=O)Nc3ccc(F)cc32)c1C [sunitinib, reference compound]
experimental metastasis, especially in the lungs [1]: promotion of experimental metastasis, especially in the lungs

CHHHRHSF [Vasculotide, 4-armed maleimide-functionalized polyethylene glycol (PEG) backbone to link together four cysteine-capped T7 peptides, that is, CHHHRHSF]
cytotoxic effect on TCs / viability [2]: no direct cytotoxic effect

B1: recombinant human Ang1 (rhAng1) (ligand, UniProt Q15389 16-498, looked up)
chain: HIGCSNQRRSPENSGRRYNRIQHGQCAYTFILPEHDGNCRESTTDQYNTNALQRDAPHVEPDFSSQKLQHLEHVMENYTQWLQKLENYIVENMKSEMAQIQQNAVQNHTATMLEIGTSLLSQTAEQTRKLTDVETQVLNQTSRLEIQLLENSLSTYKLEKQLLQQTNEILKIHEKNSLLEHKILEMEGKHKEELDTLKEEKENLQGLVTRQTYIIQELEKQLNRATTNNSVLQKQQLELMDTVHNLVNLCTKEGVLLKGGKREEEKPFRDCADVYQAGFNKSGIYTIYINNMPEPKKVFCNMDVNGGGWTVIQHREDGSLDFQRGWKEYKMGFGNPSGEYWLGNEFIFAITSQRQYMLRIELMDWEGNRAYSQYDRFHIGNEKQNYRLYLKGHTGTAGKQSSLILHGADFSTKDADNDNCMCKCALMLTGGWWFDACGPSNLNGMFYTAGQNHGKLNGIKWHYFKGPSYSLRSTTMMIRPLDF
notes: angiopoietin-1, human, recombinant; also called angiopoietin-1; source: bought: R&D Systems (named for the Boyden chamber experiments)
Kd [3]: 0.237 nM
